Reference: ChEMBL document CHEMBL4130416, “Glycine-replaced derivatives of [Pro3,DLeu9]TL, a temporin L analogue: Evaluation of antimicrobial, cytotoxic and hemolytic activities” (Eur J Med Chem, 2017)
Values after ≈ are worked out from the molar mass of the structure shown. Active and inactive are the calls of the source. No cut-off for these calls is given here. Where a SMILES comes first, the peptide text is derived from it. [ ]: non-standard residue; d: D form. Aic = NC1(C(=O)O)Cc2ccccc2C1

Tests used:
Pichia kudriavzevii = assay: Antimicrobial activity against Candida krusei ATCC 6258 after 18 to 20 hrs by microbroth dilution method; type: functional
Pseudomonas aeruginosa = assay: Antimicrobial activity against Pseudomonas aeruginosa ATCC 27853 after 18 to 20 hrs by microbroth dilution method; type: functional
[1] = test system: Staphylococcus epidermidis; assay: Antimicrobial activity against Staphylococcus epidermidis ATCC 12228 after 18 to 20 hrs by microbroth dilution method; type: functional
Priestia megaterium = assay: Antimicrobial activity against Bacillus megaterium Bm11 after 18 to 20 hrs by microbroth dilution method; type: functional
Candida albicans [2] = assay: Antimicrobial activity against Candida albicans ATCC 10231 after 18 to 20 hrs by microbroth dilution method; type: functional
Escherichia coli = assay: Antimicrobial activity against Escherichia coli D21 after 18 to 20 hrs by microbroth dilution method; type: functional
HaCaT [3] = assay: Cytotoxicity against human HaCaT cells at 12.5 uM after 24 hrs by MTT assay relative to control; type: cell-based
Pseudomonas syringae = assay: Antimicrobial activity against Pseudomonas syringae pv tabaci NCPPB 1918 after 18 to 20 hrs by microbroth dilution method; type: functional, Pseudomonas amygdali pv. tabaci
HaCaT [4] = assay: Cytotoxicity against human HaCaT cells at 25 uM after 24 hrs by MTT assay relative to control; type: cell-based
HaCaT [5] = assay: Cytotoxicity against human HaCaT cells at 1.56 to 6.25 uM after 24 hrs by MTT assay; type: cell-based
Acinetobacter baumannii [6] = assay: Antimicrobial activity against Acinetobacter baumannii ATCC 19606 after 18 to 20 hrs by microbroth dilution method; type: functional; conditions: ATCC 19606 = CIP 70.34 = JCM 6841
Staphylococcus aureus = assay: Antimicrobial activity against Staphylococcus aureus Cowan I after 18 to 20 hrs by microbroth dilution method; type: functional
HaCaT [7] = assay: Cytotoxicity against human HaCaT cells at 50 uM after 24 hrs by MTT assay relative to control; type: cell-based
[8] = test system: Staphylococcus epidermidis; assay: Antimicrobial activity against Staphylococcus epidermidis ATCC 12228 assessed as membrane-perturbation measured every minute for 120 mins by SYTOX green fluorescence dye influx assay; type: functional, organism-based
Acinetobacter baumannii [9] = assay: Antimicrobial activity against Acinetobacter baumannii ATCC 19606 assessed as induction of membrane-perturbation at MIC measured every minute for 120 mins by SYTOX green fluorescence dye influx assay; type: functional, organism-based; conditions: ATCC 19606 = CIP 70.34 = JCM 6841
Candida albicans [10] = assay: Antimicrobial activity against Candida albicans ATCC 10231 assessed as induction of membrane-perturbation at MIC measured every minute for 10 mins by SYTOX green fluorescence dye influx assay; type: functional, organism-based

Row | Molecule | MIC (Pichia kudriavzevii) [µM] | MIC (Pseudomonas aeruginosa) [µM] | MIC [1] [µM] | MIC (Priestia megaterium) [µM] | MIC (Candida albicans [2]) [µM] | MIC (Escherichia coli) [µM] | MIC (Pseudomonas syringae) [µM] | MIC (Acinetobacter baumannii [6]) [µM] | MIC (Staphylococcus aureus) [µM] | Activity (HaCaT [3]) [%] | Activity (HaCaT [4]) [%] | Activity (HaCaT [5]) | Activity (HaCaT [7]) [%] | Activity [8] | Activity (Acinetobacter baumannii [9]) | Activity (Candida albicans [10])
1 | CC[C@H](C)C(NC(=O)[C@H](CCCNC(=N)N)NC(=O)[C@H](CCCCN)NC(=O)[C@@H](CC(C)C)NC(=O)[C@H](Cc1ccccc1)NC(=O)[C@H](CCCCN)NC(=O)[C@H](CO)NC(=O)[C@H](Cc1ccccc1)NC(=O)[C@H](Cc1c[nH]c2ccccc12)NC(=O)[C@@H]1CCCN1C(=O)[C@@H](NC(=O)[C@@H](N)Cc1ccccc1)C(C)C)C(=O)N[C@@H](CC(C)C)C(N)=O (single isomer, unassigned) | 1.56 (≈ 2.62 µg/mL) | 12.5 (≈ 21 µg/mL) | 3.12 (≈ 5.25 µg/mL) | 3.12 (≈ 5.25 µg/mL) | 1.56 (≈ 2.62 µg/mL) | 12.5 (≈ 21 µg/mL) | 6.25 (≈ 10.5 µg/mL) | 3.12 (≈ 5.25 µg/mL) | 6.25 (≈ 10.5 µg/mL) | 49.3 | 66.86 | Non-Toxic | 96.79 | – | – | –
2 | CCCC[C@H](NC(=O)[C@@H](CC(C)C)NC(=O)[C@H](Cc1ccccc1)NC(=O)[C@H](CCCCN)NC(=O)[C@H](CO)NC(=O)[C@H](Cc1ccccc1)NC(=O)[C@H](Cc1c[nH]c2ccccc12)NC(=O)[C@@H]1CCCN1C(=O)[C@@H](NC(=O)[C@@H](N)Cc1ccccc1)C(C)C)C(=O)N[C@@H](CCCNC(=N)N)C(=O)NC(C(=O)N[C@@H](CC(C)C)C(N)=O)[C@@H](C)CC (single isomer, unassigned) | 3.12 (≈ 5.2 µg/mL) | 50 (≈ 83.3 µg/mL) | 3.12 (≈ 5.2 µg/mL) | 3.12 (≈ 5.2 µg/mL) | 3.12 (≈ 5.2 µg/mL) | 25 (≈ 41.6 µg/mL) | 6.25 (≈ 10.4 µg/mL) | 6.25 (≈ 10.4 µg/mL) | 3.12 (≈ 5.2 µg/mL) | 12.25 | 65.86 | Non-Toxic | 99.76 | – | – | –
3 | H-FVQWFSKFLGRIL-NH2 | – | – | – | – | – | – | – | – | – | – | – | – | – | Active | Active | Active
4 | CC[C@H](C)[C@H](NC(=O)[C@H](CCCNC(=N)N)NC(=O)[C@H]1C[C@@H](O)CN1C(=O)[C@@H](CC(C)C)NC(=O)[C@H](Cc1ccccc1)NC(=O)[C@H](CCCCN)NC(=O)[C@H](CO)NC(=O)[C@H](Cc1ccccc1)NC(=O)[C@H](Cc1c[nH]c2ccccc12)NC(=O)[C@@H]1CCCN1C(=O)[C@@H](NC(=O)[C@@H](N)Cc1ccccc1)C(C)C)C(=O)N[C@@H](CC(C)C)C(N)=O | 3.12 (≈ 5.2 µg/mL) | > 50 | 50 (≈ 83.3 µg/mL) | 3.12 (≈ 5.2 µg/mL) | 3.12 (≈ 5.2 µg/mL) | 25 (≈ 41.6 µg/mL) | > 50 | 25 (≈ 41.6 µg/mL) | > 50 | 0 | 0 | Non-Toxic | 0 | – | – | –

Further molecules by falling MIC (Pichia kudriavzevii), results first:

Row | MIC (Pichia kudriavzevii) [µM] | MIC (Pseudomonas aeruginosa) [µM] | MIC [1] [µM] | MIC (Priestia megaterium) [µM] | MIC (Candida albicans [2]) [µM] | MIC (Escherichia coli) [µM] | MIC (Pseudomonas syringae) [µM] | MIC (Acinetobacter baumannii [6]) [µM] | MIC (Staphylococcus aureus) [µM] | Molecule | Activity (HaCaT [3]) [%] | Activity (HaCaT [4]) [%] | Activity (HaCaT [5]) | Activity (HaCaT [7]) [%] | Activity [8] | Activity (Acinetobacter baumannii [9]) | Activity (Candida albicans [10])
5 | 6.25 (≈ 10.7 µg/mL) | > 50 | 1.56 (≈ 2.67 µg/mL) | 1.56 (≈ 2.67 µg/mL) | 6.25 (≈ 10.7 µg/mL) | > 50 | 1.56 (≈ 2.67 µg/mL) | 3.12 (≈ 5.35 µg/mL) | 1.56 (≈ 2.67 µg/mL) | CC[C@H](C)[C@H](NC(=O)[C@H](CCCNC(=N)N)NC(=O)C1(NC(=O)[C@@H](CC(C)C)NC(=O)[C@H](Cc2ccccc2)NC(=O)[C@H](CCCCN)NC(=O)[C@H](CO)NC(=O)[C@H](Cc2ccccc2)NC(=O)[C@H](Cc2c[nH]c3ccccc23)NC(=O)[C@@H]2CCCN2C(=O)[C@@H](NC(=O)[C@@H](N)Cc2ccccc2)C(C)C)Cc2ccccc2C1)C(=O)N[C@@H](CC(C)C)C(N)=O (H-FVPWFSKF[dL][Aic]RIL-NH2) | 45.54 | 88.72 | Non-Toxic | 92.84 | – | – | –
6 | 3.12 (≈ 5.15 µg/mL) | > 50 | 25 (≈ 41.2 µg/mL) | 3.12 (≈ 5.15 µg/mL) | 3.12 (≈ 5.15 µg/mL) | 50 (≈ 82.5 µg/mL) | 50 (≈ 82.5 µg/mL) | 50 (≈ 82.5 µg/mL) | > 50 | CC[C@H](C)[C@H](NC(=O)[C@H](CCCNC(=N)N)NC(=O)[C@H]1CCCN1C(=O)[C@@H](CC(C)C)NC(=O)[C@H](Cc1ccccc1)NC(=O)[C@H](CCCCN)NC(=O)[C@H](CO)NC(=O)[C@H](Cc1ccccc1)NC(=O)[C@H](Cc1c[nH]c2ccccc12)NC(=O)[C@@H]1CCCN1C(=O)[C@@H](NC(=O)[C@@H](N)Cc1ccccc1)C(C)C)C(=O)N[C@@H](CC(C)C)C(N)=O (H-FVPWFSKF[dL][dP]RIL-NH2) | 0 | 0 | Non-Toxic | 0 | – | – | –
7 | 1.56 (≈ 2.57 µg/mL) | 50 (≈ 82.5 µg/mL) | 3.12 (≈ 5.15 µg/mL) | 1.56 (≈ 2.57 µg/mL) | 1.56 (≈ 2.57 µg/mL) | 25 (≈ 41.2 µg/mL) | 12.5 (≈ 20.6 µg/mL) | 6.25 (≈ 10.3 µg/mL) | 3.12 (≈ 5.15 µg/mL) | CC[C@H](C)[C@H](NC(=O)[C@H](CCCNC(=N)N)NC(=O)[C@@H]1CCCN1C(=O)[C@@H](CC(C)C)NC(=O)[C@H](Cc1ccccc1)NC(=O)[C@H](CCCCN)NC(=O)[C@H](CO)NC(=O)[C@H](Cc1ccccc1)NC(=O)[C@H](Cc1c[nH]c2ccccc12)NC(=O)[C@@H]1CCCN1C(=O)[C@@H](NC(=O)[C@@H](N)Cc1ccccc1)C(C)C)C(=O)N[C@@H](CC(C)C)C(N)=O (H-FVPWFSKF[dL]PRIL-NH2) | 16.15 | 77.06 | Non-Toxic | 96.61 | – | – | –
8 | 1.56 (≈ 2.6 µg/mL) | 50 (≈ 83.3 µg/mL) | 6.25 (≈ 10.4 µg/mL) | 1.56 (≈ 2.6 µg/mL) | 3.12 (≈ 5.2 µg/mL) | 25 (≈ 41.6 µg/mL) | 12.5 (≈ 20.8 µg/mL) | 6.25 (≈ 10.4 µg/mL) | 6.25 (≈ 10.4 µg/mL) | CC[C@H](C)[C@H](NC(=O)[C@H](CCCNC(=N)N)NC(=O)[C@@H]1C[C@@H](O)CN1C(=O)[C@@H](CC(C)C)NC(=O)[C@H](Cc1ccccc1)NC(=O)[C@H](CCCCN)NC(=O)[C@H](CO)NC(=O)[C@H](Cc1ccccc1)NC(=O)[C@H](Cc1c[nH]c2ccccc12)NC(=O)[C@@H]1CCCN1C(=O)[C@@H](NC(=O)[C@@H](N)Cc1ccccc1)C(C)C)C(=O)N[C@@H](CC(C)C)C(N)=O | 2.76 | 84.72 | Non-Toxic | 98.81 | – | – | –
